Data reported in patent US10344032B2, “Agents for treating neurogenic inflammation and neuropathic hyperalgesia related disorders” (PÉCSI TUDOMÁNYEGYETEM, priority 2014, dated 2019).

Tests used:
sst4 receptor = target: T1, sst4 receptor (Homo sapiens, UniProt P31391); assay: Somatostatin sst4 receptor-coupled G-protein activation assay ([35S]GTPγS binding); format: biochemical; conditions: 100 nM concentration; membrane fractions of CHO cells stably expressing the sst4 receptor; percentage over specific binding in absence of agonists
T1 construct: expressed in transfected cells
T1 sequence (P31391 whole entry): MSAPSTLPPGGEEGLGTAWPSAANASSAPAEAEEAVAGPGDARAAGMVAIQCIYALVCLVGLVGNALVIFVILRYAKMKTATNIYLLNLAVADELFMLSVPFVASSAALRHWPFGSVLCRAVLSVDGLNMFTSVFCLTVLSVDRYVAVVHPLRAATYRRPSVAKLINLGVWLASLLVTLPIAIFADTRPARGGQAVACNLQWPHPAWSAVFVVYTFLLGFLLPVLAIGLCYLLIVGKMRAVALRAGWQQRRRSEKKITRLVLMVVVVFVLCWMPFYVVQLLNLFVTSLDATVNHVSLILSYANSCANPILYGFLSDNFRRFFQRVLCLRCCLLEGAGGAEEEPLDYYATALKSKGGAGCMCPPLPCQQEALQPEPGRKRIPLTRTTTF
Description: [^35S]GTPγS binding assay is a functional test determining agonist-induced and receptor-mediated G-protein activation which is based on the increase in guanine nucleotide exchange at G-proteins upon agonist stimulation. The interaction of a G protein-coupled receptor (GPCR) with the G protein is the first step in the transduction of the receptor binding signal to the activation of the second-messenger systems. We measured the level of [^35S]-GTPγS bound to the α subunit of G proteins and determined the efficacy of the compounds. Compounds which elicited 200% [^35S]GTPγS binding in nanomolar concentration were considered effective agonist. The examined compounds were added into the medium in 1 nM, 10 nM, 100 nM 1 μM and 10 μM concentrations.
Membrane fractions were prepared from CHO cells stably expressing the sst4 receptor in Tris-EGTA buffer (50 mM Tris-HCl, 1 mM EGTA, 3 mM MgCl2, 100 mM NaCl, pH 7.4). These membrane fractions (˜10 μg of protein/sample) were incubated at 30° C. for 60 min in the same Tris-EGTA buffer containing [^35S]GTPγS (0.05 nM) and increasing concentrations (10^−9 to 10^−5 M) of test compounds in the presence of 30 μM GDP in a final volume of 500 μl. Non-specific binding was determined in the presence of 10 μM unlabelled GTPγS. Total binding was measured in the absence of test compounds. To calculate the specific binding, non-specific binding was subtracted from total binding. The reaction was terminated by filtrating the samples through Whatman GF/B glass fiber filters. Using 48-well Slot Blot Manifold from Cleaver Scientific filters were washed three times with ice-cold 50 mM Tris-HCl buffer (pH 7.4). After drying for 60 min at 37° C., radioactivity was measured in scintillation liquid in a Packard Tri-Carb 2800 TR scintillation counter. Test compound-induced G-protein stimulation was given as percentage over the specific [^35S]GTPγS binding observed in the absence of agonists.

[1] = tested on: sensory nerve terminals of isolated rat tracheae; assay: Electrical field stimulation-induced release of CGRP from sensory nerve terminals of isolated rat tracheae; conditions: 500 nM; absolute release = stimulated + post-stimulated fractions minus basal release
Procedure: Rats were exsanguinated in deep anaesthesia (sodium thiopental, 50 mg/kg i.p.), then the whole trachea was removed and cleaned of fat and adhering connective tissues. Tracheae from two rats were placed into the same 1.8 ml organ bath to obtain sufficient amount of released peptide and perfused (1 ml/min) with pH—(7.2) controlled oxygenized Krebs solution for 60 minutes (equilibration period) at 37° C. temperature. After discontinuation of the flow, the solution was changed three times for 8 minutes to produce pre-stimulated, stimulated, post-stimulated fractions. Electrical field stimulation (40 V, 0.1 ms, 10 Hz for 120 s; 1200 pulses) was performed to elicit neurotransmitter release at the beginning of the second 8-minute period. […]
CGRP concentration was determined from 400-400 μl samples of the organ bath solutions by means of a selective and sensitive radioimmunoassay method developed in our laboratories and described in details in several previous papers (Nemeth et al. 1998, 1999, 2006; Helyes et al., 1997, 2001, 2006; Borzsei et al., 2008). The released amount of the peptides was calculated as fmol peptide per mg wet tissue (trachea). The absolute EFS-induced CGRP outflow in each experiment was calculated by taking off the basal release measured in the first (pre-stimulated) fraction from the second and third 8-min fractions and then adding these values. […]

rat [2] = assay: Partial sciatic nerve ligation (Seltzer operation) mechanical hyperalgesia (Randall-Selitto test); format: in vivo; conditions: 100 μg/kg p.o., 60 min; 7 days after partial sciatic nerve ligation; Randall-Sellitto test
Procedure: Wistar rats were anaesthetised with sodium-pentobarbital (Euthasol, 50 mg/kg i.p.). The common sciatic nerve was exposed unilaterally on the right side high in the thigh and ⅓-½ of the nerve trunk was carefully separated and tightly ligated using a siliconised silk suture (Ethicone 9-0). Then the wound was closed and the animals were allowed to survive for 7 days (Seltzer et al., 1990). During this period, signs of spontaneous pain (holding the legs in elevated position), mechanical hyperalgesia and allodynia developed.
Mechanonociceptive threshold of the hindpaws was measured with analgesimetry (Randall-Sellitto test) and touch sensitivity of the plantar surface with dynamic plantar aesthesiometry on the same animals. Hyperalgesia (decrease of the mechanonociceptive threshold) and allodynia (decrease of touch sensitivity) were expressed in % compared to the initial pre-operation control values. Significant decrease of the mechanonociceptive thresholds, as well as touch sensitivity thresholds developed 7 days after the surgery (Szolcsanyi et al. 2003; Sandor et al. 2006). […]
b) The mechanonociceptive thresholds of the hindpaw was measured with the Ugo Basile Analgesimeter (7210, Comerio, Italy; Randall-Selitto test). […] The threshold force which elicited withdrawal was read on an analog scale calibrated in grams. […]

rat [3] = assay: Plantar incision-induced mechanical allodynia (dynamic plantar aesthesiometer), postoperative pain model; format: in vivo; conditions: 100 μg/kg p.o., measured 60 min later; one day after plantar incision; dynamic plantar aesthesiometry
Procedure: Rats were anaesthesized with sodium-pentobarbital (Euthasol, 40 mg/kg i.p.) and a 1 cm longitudinal incision was made through the skin, fascia and muscle of the plantar aspect of the hindpaw. Significant decrease of both the thermonociceptive and mechanonociceptive thresholds (heat and mechanical allodynia) of the paw develops 1 day after this procedure.
One hundred and forty five (145) female Wistar rats (150-250 g) kept in the Animal House of the University of Pecs in a temperature-controlled room provided with a 12-hour light-dark cycle, standard rat chow and water ad libitum were used in this experimental series. They were brought to the air-conditioned laboratory the day before the experiment started. Throughout the total study the same assistant handled all the animals. […] Touch sensitivity was measured with a dynamic plantar aesthesiometer (DPA) and the thermonociceptive threshold was determined with an increasing temperature water-bath (ITWB) on the same rats (see below). […] Test compounds were administered p.o. and post-dose touch sensitivity and thermonociceptive thresholds were measured 60 min later. […]
a) Touch sensitivity of the plantar surface of the paw was measured with the Ugo Basile Dynamic Plantar Aesthesiometer (DPA; 37400, Comerio, Italy), which is an electronic von Frey device. […]

COc1ccc(CCNc2ncnc3c2c(C)c(C)n3Cc2ccccc2)cc1 [Example 2, (7-Benzyl-5,6-dimethyl-7H-pyrrolo[2,3-d]pyrimidin-4-yl)-[2-(4-methoxy-phenyl)-ethyl]-amine]
[35S]GTPγS binding (G-protein activation) (sst4 receptor): 245.67% | inhibition on the absolute CGRP release [1]: 72.5% | melting point: 100 to 101.9 °C

Cc1c(C)n(Cc2ccccc2)c2ncnc(NCCc3ccc(O)cc3)c12 [Example 4, 4-[2-(7-Benzyl-5,6-dimethyl-7H-pyrrolo[2,3-d]pyrimidin-4-ylamino)-ethyl]-phenol]
reduction of mechanical hyperalgesia (rat [2]): 46% | melting point: 198 to 199 °C

Cc1c(C)n(Cc2ccccc2)c2ncnc(NCCc3cccc(Cl)c3)c12 [Example 39, (7-Benzyl-5,6-dimethyl-7H-pyrrolo[2,3-d]pyrimidin-4-yl)-[2-(3-chloro-phenyl)-ethyl]-amine]
reduction of mechanical hyperalgesia (rat [2]): 31% | melting point: 205 to 207 °C

CC(=O)Nc1ccc(CCNc2ncnc3c2c(C)c(C)n3CCCN(C)C)cc1 [Example 51, N-(4-{2-[7-(3-Dimethylamino-propyl)-5,6-dimethyl-7H-pyrrolo[2,3-d]pyrimidin-4-ylamino]-ethyl}-phenyl)-acetamide]
inhibition on the absolute CGRP release [1]: 79.55% | decrease of mechanical allodynia (rat [3]): 63% | melting point: 132.7 to 133.7 °C

Cc1c(C)n(Cc2ccccc2)c2ncnc(NCCc3cccc(O)c3)c12 [Example 58, 3-[2-(7-Benzyl-5,6-dimethyl-7H-pyrrolo[2,3-d]pyrimidin-4-ylamino)-ethyl]-phenol]
[35S]GTPγS binding (G-protein activation) (sst4 receptor): 194.5% | decrease of mechanical allodynia (rat [3]): 64.7% | melting point: 208.7 to 209.2 °C
